Results: patent publication US20110008394A1, “ACTIVE SUBSTANCES THAT INCREASE THE ACTIVATION THRESHOLD OF IMMUNE CELLS” (BASF Beauty Care Solutions France S.A.S., priority 2008, published 2011)

Experiments:
[1] = test system: CD86 on LCs/DDCs stimulated with LPS and TNFα; experiment: Response to a danger signal: LCs/DDCs pretreated with active principles, then stimulated with LPS + TNFα without them, CD86 by flow cytometry; type: cell-based, human; settings: for RESPONSE CAPACITY: capacity for response to a danger signal, proportional to residual CD86 after pretreatment + stimulation (stimulation alone 143%); for RESIDUAL EXPRESSION OF CD86 AFTER PRETREATMENT + STIMULATION: pretreated, then recultured 48 hours without active principle with LPS 50 μg/mL + TNFα 10 μg/mL, untreated unstimulated control = 100%
Description: As in Example 8, we checked that the LCs/DDCs are capable of responding to a danger signal, for example a bacterial infection, when they have been treated beforehand with the active principles and when they are no longer being treated. To do this, we checked that the LCs/DDCs treated with the said active principles, and then stimulated with LPS and TNFα (in the absence of the active principles), are capable of overexpressing the co-stimulation molecule CD86 after this stimulation.
(§1) The flow cytometry study proceeds in the following manner:
(§2) 1/ The immature LCs/DDCs are generated as described in Example 1 and step 3.
(§3) 2/ The cells are inoculated in P24-well plates, at a rate of 400 000 cells per cm^2, and in the culture medium described in Example 3. The treatment of the cells with the active principles is described in Example 3.
3/ The cells treated with the active principles are then recultured, without the active principles and in the culture medium described in Example 3, for a further 48 hours. A mixture of LPS (at 50 μg/mL advantageously) and of TNFα (at 10 μg/mL advantageously) is added to the said culture medium. The cells are then analysed by flow cytometry, as described in Example 6, to quantify the residual expression of the molecule CD86 after “pretreatment+stimulation”.
The results are expressed in the following manner: the control not treated with the active agent and not stimulated with LPS and TNFα is referenced at 100% expression of the molecule CD86, and the tests are expressed as the residual expression of the molecule CD86 after “stimulation” and after “pretreatment+stimulation”. We also calculated the level of capacity for response to a danger signal, which is proportional to the residual expression of CD86 after pretreatment+stimulation.

[2] = test system: CD86 on LCs/DDCs stimulated with LPS and TNFα; experiment: Response to a danger signal: LCs/DDCs simultaneously treated with active principles and stimulated with LPS + TNFα, CD86 by flow cytometry; type: cell-based, human; settings: for RESIDUAL EXPRESSION OF CD86 AFTER TREATMENT: active principle alone, no stimulation; for RESIDUAL EXPRESSION OF CD86 AFTER TREATMENT / RESIDUAL EXPRESSION OF CD86 AFTER TREATMENT + STIMULATION: untreated unstimulated control = 100%; for RESPONSE CAPACITY: capacity for response to a danger signal, proportional to residual CD86 after treatment + stimulation (stimulation alone 143%); for RESIDUAL EXPRESSION OF CD86 AFTER TREATMENT + STIMULATION: simultaneous active principle and LPS 50 μg/mL + TNFα 10 μg/mL
Procedure: Evaluation of the immunorepressive potential of the active principles also requires a study of the capacity of the LCs/DDCs to respond to a danger signal, for example a bacterial infection, when they are treated with the said active principles. Specifically, we checked that the LCs/DDCs that are simultaneously treated with the active principles and activated by a danger signal are still competent in their function of recognition of danger signals. To do this, we checked that the LDs/DDCs simultaneously treated with the active principles and stimulated with LPS and TNFα are capable of overexpressing the co-stimulation molecule CD86 after this stimulation.
as §1, §2
2/ The cells are inoculated in P24-well plates, at a rate of 400 000 cells per cm^2, and in the culture medium described in Example 3. A mixture of LPS (at 50 μg/mL advantageously) and of TNFα (at 10 μg/mL advantageously) is added to the said culture medium. Simultaneously, the cells are treated with the active principles as described in Example 3.
3/ The cells that have been simultaneously treated with the active principles and stimulated with LPS and TNFα are analysed by flow cytometry, as described in Example 6, to quantify the residual expression of the molecule CD86 after “treatment+stimulation”.
The results are expressed in the following manner: the control not treated with the active agent and not stimulated with LPS+TNFα is referenced at 100% expression of the molecule CD86, and the tests are expressed as the residual expression of the molecule CD86 after “treatment”, after “treatment+stimulation” and “stimulation”. We also calculated the level of capacity for response to a danger signal, which is proportional to the residual expression of CD86 after treatment+stimulation.

[3] = test system: messenger RNAs coding for CD86 in immature LCs/DDCs; experiment: Expression of messenger RNAs coding for CD86 in treated immature LCs/DDCs, quantitative RT-PCR; type: cell-based, human; settings: 10^-7M, 24 hour treatment; for RESIDUAL EXPRESSION OF CD86: messenger RNA relative to actin, untreated control = 100%; for LEVEL OF IMMUNOREPRESSION: from CD86 messenger RNA, closer to 1 = stronger
Description: Quantitative RT-PCR makes it possible to quantify the expression of the messenger RNAs coding for the protein CD86 in the LCs/DDCs treated or not treated with the said active agents.
The study of the immunorepressive properties of the cosmetic active principles by quantitative RT-PCR proceeds in the following manner:
as §2, §3
3/ After treatment with the active principles, the cells are recovered and stored, for example by dry-freezing at −80° C. after rinsing with pH 7.4 phosphate buffer.
4/ The total RNA of the cells is extracted, for example using a 96-well extraction kit on silica columns, and assayed on e96-well spectrophotometer at 260 nm (purity indicator: assay of the proteins at 280 nm). The RNAs are diluted, for example, to 5 ng/μl.
5/ The […] RT-PCR in step 1 is performed, for example, on 50 ng of initial RNA on a 96-well plate, on the genes for actin and for the molecule CD86. The specific primers for each gene are specified in Table 7 below and are used, for example, at 0.5 μM.
The amplification parameters were advantageously the following: the real-time RT-PCR technique is performed with the Quanti Tect SYBR Green RT-PCR kit (Qiagen, France) on the wells containing the messenger RNA, in an Opticon thermocycler, which performs the amplification cycles. The reverse transcription (RT) is performed for 30 minutes at 50° C., followed by 15 minutes at 95° C. to inhibit the reverse transcriptase, to activate the polymerase and to denature the complementary DNA (cDNA) obtained. 50 cycles of chain polymerization (PCR) are performed (15 seconds at 95° C., 30 seconds at 60° C., 30 seconds at 72° C.). At the end of each cycle, the fluorescence, which is proportional to the number of amplified fragments, is read. The level of expression is defined by the ratio of expression of each gene relative to actin.
The results are expressed in the following manner: the untreated control is referenced at 100% expression of the messenger RNAs coding for the molecule CD86, and the tests are expressed as the level of expression of the messenger RNAs coding for CD86 as a percentage of variation relative to those obtained for the negative control.

immature LCs/DDCs = experiment: Cell viability (cytotoxicity) test, 7-AAD dye, flow cytometry; type: cell-based; settings: 24 hour treatment
Procedure: The active principles have a cytotoxic effect when the cell viability is less than 75% after treatment with the said active agents.
The LCs/DDCs, as described in Example 1 and step 3, are inoculated into P96-well plates, at a rate of 200 000 cells/well, and in the culture medium described in Example 3. The treatment of the cells with the active principles is described in Example 3.
After treatment with the said active principles, the cells are incubated with 5 μl of dye 7-AAD (7-aminoactinomycin D) per well. After incubation for 5 minutes, the cells are analysed by flow cytometry.
The cell viability is expressed as a percentage of viable cells or negative 7-AAD, the dye not penetrating the membranes that are impermeable. This analysis technique also makes it possible to visualize the cells positively marked with 7-AAD, i.e. the cells that have undergone a cytotoxic effect via the active agent.
The negative controls are either the culture medium alone, or the culture medium containing the solvent used during the process for extracting the extracts tested at the concentration equivalent to that of the active agents tested. The reference positive control used in order to induce a mortality of the LCs/DDCs is camptothecin at a concentration of 4 μM final.

[4] = test system: CD86 on immature LCs/DDCs; experiment: Protein expression of CD86 on treated immature LCs/DDCs, flow cytometry; type: cell-based, human; settings: for RESIDUAL EXPRESSION OF CD86: protein, untreated control = 100%; for LEVEL OF IMMUNOREPRESSION: inversely proportional to residual CD86 protein expression, closer to 1 = stronger
Procedure: The study of the immunorepressive properties of the cosmetic active principles by flow cytometry proceeds in the following manner:
as §2
2/ The cells are inoculated in P24-well plates, at a rate of 400 000 cells per cm^2, and in the culture medium described in Example 3.
4/ The cells are then incubated for 30 minutes with an anti-CD86 monoclonal antibody coupled to a fluorochrome, such as phycoerythrin (advantageously 10 μl of anti-CD86 antibody/well). The negative marking control corresponds to the IgG1 control isotype. After this marking step, the cells are rinsed with the said marking buffer, and then analysed by flow cytometry.
The level of immunorepression, which is inversely proportional to the residual expression of CD86, was also calculated.

[5] = 10^-7M, % viable (7-AAD negative) cells
[6] = 5 × 1^0^-^7M, dose/effect study

Compound	RESPONSE CAPACITY [1]	RESIDUAL EXPRESSION OF CD86 AFTER PRETREATMENT + STIMULATION [1] [%]	RESIDUAL EXPRESSION OF CD86 AFTER TREATMENT [2] [%]	RESPONSE CAPACITY [2]	RESIDUAL EXPRESSION OF CD86 AFTER TREATMENT + STIMULATION [2] [%]	RESIDUAL EXPRESSION OF CD86 [3] [%]	LEVEL OF IMMUNOREPRESSION [3]	CYTOTOXIC EFFECT (immature LCs/DDCs; 10^-7M)	CELL VIABILITY (immature LCs/DDCs; [5]) [%]	RESIDUAL EXPRESSION OF CD86 [4, 6] [%]	RESIDUAL EXPRESSION OF CD86 ([4]; 5 × 10^-8M, dose/effect study) [%]	RESIDUAL EXPRESSION OF CD86 ([4]; 10^-6M, dose/effect study) [%]	RESIDUAL EXPRESSION OF CD86 ([4]; 10^-7M, 24 hour treatment) [%]	LEVEL OF IMMUNOREPRESSION ([4]; 10^-7M, 24 hour treatment)	RESIDUAL EXPRESSION OF CD86 ([4]; 10^-8M, 24 hour treatment) [%]	LEVEL OF IMMUNOREPRESSION ([4]; 10^-8M, 24 hour treatment)	CELL VIABILITY (immature LCs/DDCs; 3 μm, positive control) [%]	CYTOTOXIC EFFECT (immature LCs/DDCs; 3 μm, positive control)
COc1cc2c(cc1OC)-c1cc3cc(OC)c(OC)cc3c(=O)n1CC2 [8-Oxopseudopalmatine]	0.89	127	81	0.85	121	59	0.41	NO (The active principles have a cytotoxic effect when the cell viability is less than 75% after treatment with the said active agents)	94	92	100	85	81	0.14				
O=C1C=C2C=C[C@@H]3C[C@@]2(O1)[C@H]1CCCCN31 [Securinine]	0.88	126	83	0.98	140	74	0.26	NO (The active principles have a cytotoxic effect when the cell viability is less than 75% after treatment with the said active agents)	94	100	90	100	83	0.10				
Foliosidine acetonide	0.84	120	85	0.81	116	91	0.09	NO (The active principles have a cytotoxic effect when the cell viability is less than 75% after treatment with the said active agents)	>95	80	85	83	85	0.17				
C[C@@H]1C[C@H]2[C@@H]3CCC4=CC(=O)C=C[C@]4(C)[C@@]3(F)[C@@H](O)C[C@]2(C)[C@@]1(O)C(=O)CO [Dexamethasone, reference compound]	0.91	130	50	0.52	75										50	0.5		
CC[C@@]1(O)C(=O)OCc2c1cc1n(c2=O)Cc2cc3ccccc3nc2-1 [Camptothecin, reference compound]																	35	YES (The active principles have a cytotoxic effect when the cell viability is less than 75% after treatment with the said active agents)
